Source: the OligoGym collection
These antisense oligonucleotides have a phosphorothioate backbone; sugars and methylation of C are not fully specified.

Biological target: GNA13
Conditions: ASO
Further: test concentration or dose not given here.

Sequence	remaining target (mRNA or protein) (fraction of control)
AAAAGATATTAAAACAGC	≥ 1
AAAGTCGTATTCATGGAT	≥ 1
AACAGATCAAAGCCTGCA	0.64
AAGCAAGTCTGTCTTGTT	0.79
AAGCATTTTGAAAGGAAC	≥ 1
AAGGTGGACTTGCCGCTC	0.24
AATATTTTACAGATTCAC	≥ 1
AATTCTGGTTGTAAACTG	≥ 1
ACCCAGTTGAAATTCTCG	0.43
ACCCTCATACCTTTGATC	0.09
ACGACATCATCTTATCTC	0.39
ACTAAGATTTTCAAGAAG	0.61
ACTCGTCAGCAGGCAGCC	≥ 1
AGAACAGAATTATGGAGA	0.31
AGCACACGGACAGCACGG	0.51
AGCAGCAGGATCTTCACC	0.54
AGTCCGCCATCTTGCCGC	≥ 1
AGTGGTGAAGTGGTGGTA	0.43
ATATGAAGCTTCTCTCGA	0.42
ATATTGTAAGAAAACCCT	≥ 1
ATGTTCTCCGTGTTGATA	0.67
CAAATCTTGGCGATGAGT	0.31
CAATTTGCACCTTCTCCT	0.29
CACACGGACAGCACGGAC	0.77
CACTTGAGGAAACAAGGA	0.38

Sequence	remaining target (mRNA or protein) (fraction of control)
CAGCTTTCAGCCACAAAC	0.99
CATAAGCACCTGGTCAAA	0.1
CATAGGTCTTTTCCCGAG	0.52
CATCTGCTTCAGGAAGGT	0.55
CATCTTGCCGCCGCCGCC	0.99
CCCGTGGATGATCCGCAT	≥ 1
CCGCCGCCTCGCCGCCTC	0.33
CCGCTGTCTGCCCATAAT	0.08
CCTTGTTTCCACCATTCC	0.07
CGAGACAGGCATTTGTCG	≥ 1
CGATTGGTCAGTCGATCT	≥ 1
CGCCTCGCCGCCTCTCCG	0.75
CGCGCCCAGCAGCAGGAT	0.75
CGGACCGCGACGGCAGGA	0.58
CGGTCATAGGCATTCTGT	0.66
CGTAGAATTAAGATTGTT	≥ 1
CGTTTGTTCCGGAAACAT	0.76
CTCCATGTTGTTGGTTTG	0.46
CTTGCGTTGCTGCTCGGC	0.36
CTTTTCCCGAGACAGGCA	0.08
GAAAACCCTTGTTTCCAC	0.33
GAAATAGTCTTTGATGCT	0.61
GACAGGCATTTGTCGATC	≥ 1
GACCGCGACGGCAGGAAG	≥ 1
